Measured values as given in publication PMC5535840 (International Journal of Molecular Sciences, 2017).
Read-outs that look alike come from different tables or passages of the source.

Experiments:
[1] = molecular target: T1, hMT1; MT1 melatonin receptor (Homo sapiens, UniProt P48039); assay: […]-GTPγS binding, CHO-K1 membranes; format: biochemical; conditions: read-out: MT1 / pEC50 (converted)
T1 construct: gene MTNR1A

[2] = molecular target: T2, hMT2; MT2 melatonin receptor (Homo sapiens, UniProt P49286); assay: […]-GTPγS binding, CHO-K1 membranes; format: biochemical
T2 construct: gene MTNR1B
T2 sequence (P49286 1-362): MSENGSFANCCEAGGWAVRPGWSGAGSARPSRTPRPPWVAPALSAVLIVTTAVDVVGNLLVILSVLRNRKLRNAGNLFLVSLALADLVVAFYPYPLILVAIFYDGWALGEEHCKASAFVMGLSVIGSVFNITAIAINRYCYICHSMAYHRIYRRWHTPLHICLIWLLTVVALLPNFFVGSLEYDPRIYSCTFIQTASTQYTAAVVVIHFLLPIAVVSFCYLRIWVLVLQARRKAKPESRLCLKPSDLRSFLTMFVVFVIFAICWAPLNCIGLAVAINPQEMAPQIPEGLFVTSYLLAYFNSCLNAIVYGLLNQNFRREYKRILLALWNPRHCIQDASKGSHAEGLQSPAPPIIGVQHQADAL

[3] = molecular target: T2, hMT2; MT2 melatonin receptor; assay: […]-[…]-iodomelatonin displacement, CHO-K1 membranes; format: binding
[4] = molecular target: T1, hMT1; MT1 melatonin receptor; assay: as above; format: binding
[5] = read-out: MT2 / pEC50 (converted)
[6] = radioligand […]-[…]-iodomelatonin

T1 sequence (P48039 whole entry): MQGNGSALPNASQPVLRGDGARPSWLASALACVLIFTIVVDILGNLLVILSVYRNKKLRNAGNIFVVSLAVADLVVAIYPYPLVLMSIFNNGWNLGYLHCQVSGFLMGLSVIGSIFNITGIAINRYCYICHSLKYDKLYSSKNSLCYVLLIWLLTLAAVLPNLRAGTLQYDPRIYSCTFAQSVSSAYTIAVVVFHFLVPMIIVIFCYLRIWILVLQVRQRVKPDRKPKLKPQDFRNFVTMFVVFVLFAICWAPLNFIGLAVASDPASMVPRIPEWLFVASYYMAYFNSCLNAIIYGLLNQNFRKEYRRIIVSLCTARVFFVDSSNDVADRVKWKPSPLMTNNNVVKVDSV

| SMILES | EC50 [1] | EC50 [2, 5] | Ki [3, 6] | Ki [4] | Ki [3] | Ki [4, 6] | EC50 ([2]; read-out: MT1 / pEC50 (converted)) |
| --- | --- | --- | --- | --- | --- | --- | --- |
| COc1ccc(Cc2cc(OC)c(OC)cc2CC(=O)OC(C)(C)C)cc1OC [DIV4288] | > 10000 nM | 2.04 nM | 1.4 ± 0.1 nM |  |  | 1300 ± 97 nM |  |
| COc1cc(F)c(Cc2cc(OC)c(OC)cc2CC(=O)OC(C)(C)C)cc1OC [DIV6518] | > 10000 nM | 1.17 nM | 1.4 ± 0.3 nM |  |  | 630 ± 55 nM |  |
| COc1cc(CC(=O)OC(C)(C)C)c(Cc2cc(OC)c(OC)cc2-c2ccccc2)cc1OC [DIV6519] | > 10000 nM |  | 0.49 ± 0.01 nM |  |  | 44 ± 7 nM | > 10000 nM |

More lines, now with the values ahead:

| EC50 [1] | EC50 [2, 5] | Ki [3, 6] | Ki [4] | Ki [3] | Ki [4, 6] | EC50 ([2]; read-out: MT1 / pEC50 (converted)) | SMILES |
| --- | --- | --- | --- | --- | --- | --- | --- |
| > 10000 nM | 1.38 nM | 1.4 ± 0.1 nM | 1780 ± 118 nM |  |  |  | COc1cc(Br)c(Cc2cc(OC)c(OC)cc2CC(=O)OC(C)(C)C)cc1OC [DIV0879] |
| > 10000 nM | 0.331 nM |  | 1200 ± 143 nM | 1 ± 0.1 nM |  |  | COc1cc(I)c(Cc2cc(OC)c(OC)cc2CC(=O)OC(C)(C)C)cc1OC [DIV0880] |
